In ChEMBL document CHEMBL5665443, “Enzyme Inhibitor Single Concentration assay results for EUbOPEN Chemogenomics Library” (2024):
Where a SMILES comes first, the peptide text is derived from it. [ ]: non-standard residue; d: D form. Arg(Me) = CNC(=N)NCCC[C@H](N)C(=O)O; d3Pal = N[C@H](Cc1cccnc1)C(=O)O; azaGly = NNC(=O)O

Legend:
[1] = target: T1, Single-strand selective monofunctional uracil DNA glycosylase (Homo sapiens) (UniProt Q53HV7); conditions: Hit No;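 note: enzymatic SMUG1 assay coupled with APE1, reading fluorescence at 594 nm released when a quenched double-stranded DNA oligonucleotide substrate is cleaved and separated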
T1 sequence (whole entry): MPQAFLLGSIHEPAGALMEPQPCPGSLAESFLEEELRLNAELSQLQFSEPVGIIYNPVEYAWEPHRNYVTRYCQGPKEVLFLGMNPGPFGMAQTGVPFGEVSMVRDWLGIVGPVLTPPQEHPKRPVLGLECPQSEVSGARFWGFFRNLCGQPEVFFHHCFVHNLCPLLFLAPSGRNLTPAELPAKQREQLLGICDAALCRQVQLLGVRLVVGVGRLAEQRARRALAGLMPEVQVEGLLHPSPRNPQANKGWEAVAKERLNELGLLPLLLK
Description: Inhibition of SMUG1 by quantifying inhibition of SMUG1-mediated cleavage and dissociation of quenched duplex DNA oligonucleotides, measured as fluorescence at 594 nm. To generate a functional strand incision and increase turn-over this assay is coupled to APE1.

[2] = target: T2, Adenine DNA glycosylase (Homo sapiens) (UniProt Q9UIF7); conditions: Hit No;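 note: human MUTYH activity read as 594 nm fluorescence from cleavage and release of a quenched DNA duplex, coupled with APE1 for strand incision, lower signal meaning inhibition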
T2 sequence (whole entry): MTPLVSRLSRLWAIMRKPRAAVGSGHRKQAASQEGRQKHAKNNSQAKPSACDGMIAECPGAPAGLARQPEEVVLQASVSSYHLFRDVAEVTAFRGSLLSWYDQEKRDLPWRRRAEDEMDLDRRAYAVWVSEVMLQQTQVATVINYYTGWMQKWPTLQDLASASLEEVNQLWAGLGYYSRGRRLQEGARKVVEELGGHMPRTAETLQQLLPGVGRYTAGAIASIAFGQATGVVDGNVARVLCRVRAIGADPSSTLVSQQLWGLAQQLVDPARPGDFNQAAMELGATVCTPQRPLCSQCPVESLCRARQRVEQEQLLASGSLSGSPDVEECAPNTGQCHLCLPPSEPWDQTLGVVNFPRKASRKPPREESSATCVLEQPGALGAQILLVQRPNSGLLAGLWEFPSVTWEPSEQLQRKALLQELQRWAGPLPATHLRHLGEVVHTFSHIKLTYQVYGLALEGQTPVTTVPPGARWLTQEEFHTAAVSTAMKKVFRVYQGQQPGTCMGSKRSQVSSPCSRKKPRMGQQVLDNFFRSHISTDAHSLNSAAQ
Description: Inhibition of MUTYH by quantifying inhibition of MUTYH-mediated cleavage and dissociation of quenched duplex DNA oligonucleotides, measured as fluorescence at 594 nm. To generate a functional strand incision and increase turn-over this assay is coupled to APE1.

[3] = target: Uracil-DNA glycosylase (Homo sapiens) (UniProt P13051); conditions: Hit No;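 note: UNG excision on a quenched double-stranded DNA oligo probe, with APE1 added for strand incision and turnover, read as fluorescence at 594 nm as strands separate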
Description: Inhibition of UNG by quantifying inhibition of UNG-mediated cleavage and dissociation of quenched duplex DNA oligonucleotides, measured as fluorescence at 594 nm. To generate a functional strand incision and increase turn-over this assay is coupled to APE1.

[4] = target: G/T mismatch-specific thymine DNA glycosylase (Homo sapiens) (UniProt Q13569); conditions: Hit No;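 note: human TDG cleavage of quenched duplex DNA oligonucleotides coupled to APE1, strand release read as fluorescence at 594 nm, inhibition of TDG activity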
Description: Inhibition of TDG by quantifying inhibition of TDG-mediated cleavage and dissociation of quenched duplex DNA oligonucleotides, measured as fluorescence at 594 nm. To generate a functional strand incision and increase turn-over this assay is coupled to APE1.

[5] = target: Methyl-CpG-binding domain protein 4 (Homo sapiens) (UniProt O95243); conditions: Hit No;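 note: MBD4 activity read as fluorescence at 594 nm from cleavage and release of a quenched duplex DNA oligonucleotide, with APE1 coupled to incise the strand and raise turnover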
Description: Inhibition of MBD4 by quantifying inhibition of MBD4-mediated cleavage and dissociation of quenched duplex DNA oligonucleotides, measured as fluorescence at 594 nm. To generate a functional strand incision and increase turn-over this assay is coupled to APE1.

[6] = target: Endonuclease 8-like 1 (Homo sapiens) (UniProt Q96FI4); conditions: Hit No;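 note: fluorescence at 594 nm from quenched duplex DNA oligonucleotides released by NEIL1 cleavage and strand separation, reported as reduction of this enzyme activity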
Description: Inhibition of NEIL1 by quantifying inhibition of NEIL1-mediated cleavage and dissociation of quenched duplex DNA oligonucleotides, measured as fluorescence at 594 nm.

[7] = target: T3, Endonuclease III-like protein 1 (Homo sapiens) (UniProt P78549); conditions: Hit No;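 note: enzyme assay tracking NTHL1 cutting and release of a quenched double-stranded DNA oligo substrate, read as fluorescence at 594 nm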
T3 sequence (whole entry): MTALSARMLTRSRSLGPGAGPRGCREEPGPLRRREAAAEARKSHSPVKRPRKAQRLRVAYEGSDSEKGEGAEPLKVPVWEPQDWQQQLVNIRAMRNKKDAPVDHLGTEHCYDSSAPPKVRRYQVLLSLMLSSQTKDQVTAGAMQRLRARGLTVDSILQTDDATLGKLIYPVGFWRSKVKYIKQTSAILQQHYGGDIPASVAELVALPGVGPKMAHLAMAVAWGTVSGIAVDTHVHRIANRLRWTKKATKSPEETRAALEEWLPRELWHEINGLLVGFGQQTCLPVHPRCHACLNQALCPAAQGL
Description: Inhibition of NTHL1 by quantifying inhibition of NTHL1-mediated cleavage and dissociation of quenched duplex DNA oligonucleotides, measured as fluorescence at 594 nm.

[8] = target: T4, Endonuclease 8-like 2 (Homo sapiens) (UniProt Q969S2); conditions: Hit No;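 note: fluorescence at 594 nm reports NEIL2 cutting and release of a quenched double-stranded DNA oligo substrate, reduced signal read as inhibition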
T4 sequence (whole entry): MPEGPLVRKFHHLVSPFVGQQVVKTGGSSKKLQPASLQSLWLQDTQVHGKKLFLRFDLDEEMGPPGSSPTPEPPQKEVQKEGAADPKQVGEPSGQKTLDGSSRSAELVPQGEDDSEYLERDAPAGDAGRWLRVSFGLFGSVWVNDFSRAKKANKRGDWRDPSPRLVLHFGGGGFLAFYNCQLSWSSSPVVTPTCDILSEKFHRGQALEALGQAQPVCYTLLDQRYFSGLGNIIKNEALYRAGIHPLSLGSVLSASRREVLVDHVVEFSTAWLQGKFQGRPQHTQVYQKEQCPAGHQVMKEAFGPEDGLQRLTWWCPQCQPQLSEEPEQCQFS
Description: Inhibition of NEIL2 by quantifying inhibition of NEIL2-mediated cleavage and dissociation of quenched duplex DNA oligonucleotides, measured as fluorescence at 594 nm.

[9] = target: N-glycosylase/DNA lyase (Homo sapiens) (UniProt O15527);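 note: OGG1 cleavage of a quenched duplex DNA oligonucleotide, coupled to APE1 for strand incision, read as fluorescence at 594 nm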
Description: Inhibition of OGG1 by quantifying inhibition of OGG1-mediated cleavage and dissociation of quenched duplex DNA oligonucleotides, measured as fluorescence at 594 nm. To generate a functional strand incision and increase turn-over this assay is coupled to APE1.

[10] = Compound Concentration 10.0 uM, Hit No

Endonuclease 8-like 1 (Homo sapiens), sequence (Q96FI4 whole entry): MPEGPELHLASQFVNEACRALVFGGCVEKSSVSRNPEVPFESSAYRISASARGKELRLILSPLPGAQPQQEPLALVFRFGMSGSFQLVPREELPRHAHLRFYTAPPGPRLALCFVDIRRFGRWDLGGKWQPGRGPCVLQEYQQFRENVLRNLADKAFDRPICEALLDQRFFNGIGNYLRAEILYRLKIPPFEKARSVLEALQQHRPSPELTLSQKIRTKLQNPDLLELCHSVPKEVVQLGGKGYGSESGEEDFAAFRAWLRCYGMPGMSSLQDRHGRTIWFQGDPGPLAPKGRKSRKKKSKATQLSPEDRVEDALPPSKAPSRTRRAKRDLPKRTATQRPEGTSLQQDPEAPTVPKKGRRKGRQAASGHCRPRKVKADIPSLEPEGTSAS
Uracil-DNA glycosylase (Homo sapiens), sequence (P13051 whole entry): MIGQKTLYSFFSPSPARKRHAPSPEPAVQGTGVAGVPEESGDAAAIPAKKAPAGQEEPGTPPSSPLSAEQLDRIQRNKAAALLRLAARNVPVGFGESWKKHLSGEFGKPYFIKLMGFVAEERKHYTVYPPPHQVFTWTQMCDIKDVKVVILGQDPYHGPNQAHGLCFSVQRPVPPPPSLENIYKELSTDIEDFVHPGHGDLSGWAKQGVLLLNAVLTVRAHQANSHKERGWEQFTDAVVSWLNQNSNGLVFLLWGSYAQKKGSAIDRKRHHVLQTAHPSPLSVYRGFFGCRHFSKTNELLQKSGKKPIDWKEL
N-glycosylase/DNA lyase (Homo sapiens), sequence (O15527 whole entry): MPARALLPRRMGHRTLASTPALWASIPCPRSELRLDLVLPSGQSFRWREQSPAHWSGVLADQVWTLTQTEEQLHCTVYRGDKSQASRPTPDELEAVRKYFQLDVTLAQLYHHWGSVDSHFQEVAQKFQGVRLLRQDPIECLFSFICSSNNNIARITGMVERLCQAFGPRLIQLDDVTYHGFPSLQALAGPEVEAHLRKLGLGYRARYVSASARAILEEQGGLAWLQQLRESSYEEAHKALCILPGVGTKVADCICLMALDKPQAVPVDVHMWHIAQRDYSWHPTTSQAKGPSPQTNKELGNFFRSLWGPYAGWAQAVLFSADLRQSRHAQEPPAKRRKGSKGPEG
G/T mismatch-specific thymine DNA glycosylase (Homo sapiens), sequence (Q13569 whole entry, the tested form may be a part): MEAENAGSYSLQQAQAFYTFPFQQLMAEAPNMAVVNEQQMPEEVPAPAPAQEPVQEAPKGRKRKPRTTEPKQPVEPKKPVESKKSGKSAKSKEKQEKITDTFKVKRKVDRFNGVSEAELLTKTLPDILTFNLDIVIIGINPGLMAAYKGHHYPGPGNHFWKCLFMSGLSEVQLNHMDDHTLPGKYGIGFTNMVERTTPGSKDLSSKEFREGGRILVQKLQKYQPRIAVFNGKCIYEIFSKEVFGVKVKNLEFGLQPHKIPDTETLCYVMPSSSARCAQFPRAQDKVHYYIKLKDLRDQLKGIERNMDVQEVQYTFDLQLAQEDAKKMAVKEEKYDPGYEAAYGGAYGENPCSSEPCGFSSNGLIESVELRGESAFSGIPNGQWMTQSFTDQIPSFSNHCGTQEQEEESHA
Methyl-CpG-binding domain protein 4 (Homo sapiens), sequence (O95243 whole entry, the tested form may be a part): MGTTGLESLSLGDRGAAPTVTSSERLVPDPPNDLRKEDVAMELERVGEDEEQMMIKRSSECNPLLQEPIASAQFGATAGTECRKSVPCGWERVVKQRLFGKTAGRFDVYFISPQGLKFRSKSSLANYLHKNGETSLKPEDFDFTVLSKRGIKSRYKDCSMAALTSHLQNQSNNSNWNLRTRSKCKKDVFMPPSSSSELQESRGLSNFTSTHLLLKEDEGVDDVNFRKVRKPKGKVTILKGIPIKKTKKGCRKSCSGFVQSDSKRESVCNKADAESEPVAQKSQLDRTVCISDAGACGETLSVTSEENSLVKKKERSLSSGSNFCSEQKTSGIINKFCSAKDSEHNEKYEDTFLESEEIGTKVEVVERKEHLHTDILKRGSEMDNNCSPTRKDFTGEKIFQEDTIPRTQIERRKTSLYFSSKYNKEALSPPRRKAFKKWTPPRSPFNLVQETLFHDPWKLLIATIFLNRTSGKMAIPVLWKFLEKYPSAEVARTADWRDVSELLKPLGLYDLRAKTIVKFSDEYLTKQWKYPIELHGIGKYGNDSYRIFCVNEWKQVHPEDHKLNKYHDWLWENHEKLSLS

Compound | inhibition ([1]; Compound Concentration 1.0 uM) [%] | inhibition ([1]; Compound Concentration 10.0 uM) [%] | inhibition ([2]; Compound Concentration 1.0 uM) [%] | inhibition ([2]; Compound Concentration 10.0 uM) [%] | inhibition ([3]; Compound Concentration 1.0 uM) [%] | inhibition ([3]; Compound Concentration 10.0 uM) [%] | inhibition ([4]; Compound Concentration 1.0 uM) [%] | inhibition ([4]; Compound Concentration 10.0 uM) [%] | inhibition ([5]; Compound Concentration 10.0 uM) [%] | inhibition ([6]; Compound Concentration 1.0 uM) [%] | inhibition ([6]; Compound Concentration 10.0 uM) [%] | inhibition ([7]; Compound Concentration 1.0 uM) [%] | inhibition ([7]; Compound Concentration 10.0 uM) [%] | inhibition ([8]; Compound Concentration 10.0 uM) [%] | inhibition [9, 10] [%] | inhibition ([9]; Compound Concentration 10.0 uM, Hit Yes) [%] | inhibition ([5]; Compound Concentration 1.0 uM) [%] | inhibition ([8]; Compound Concentration 1.0 uM) [%] | inhibition ([9]; Compound Concentration 1.0 uM, Hit No) [%]
CC1=C(C#N)C(c2ccc3c(c2)c(NC(=O)c2ccccc2C)nn3C)C(C#N)=C(C)N1 | 16.1 | 24.1 | -2.97 | 15.1 | 1.91 | 6.97 | 29.4 | 58.9 | 65.1 | 1.19 | -2.11 | 2.88 | -3.26 | 0.0213 | 7.85 | – | – | – | –
Cc1ccccc1Oc1cc(-n2c(=O)cc(C(F)(F)F)[nH]c2=O)c2ccccc2c1Cl | – | 29.1 | – | 0.715 | – | -2.65 | – | 54.4 | 68.2 | – | 7.74 | – | -1.29 | -1.25 | 50.6 | – | – | – | –
N#Cc1cc(F)cc(-c2nc(-c3ccc(F)cn3)no2)c1 | – | -0.692 | – | -0.521 | – | -3.92 | – | 2.89 | 0.258 | – | -4.29 | – | -9.34 | -9.52 | -9.37 | – | – | – | –
O=C(NNS(=O)(=O)c1ccccc1F)c1cc(F)cc(-c2ccccn2)c1 | – | 15.4 | – | 3.72 | – | 6.14 | – | 49.9 | 80.8 | – | 0.316 | – | 11.9 | 3.34 | 3.57 | – | – | – | –
Cc1nc(C2CCN(C(=O)c3ccc(OC(F)(F)F)cc3N)CC2)c2ncc(N3CCN(C)CC3)cc2n1 | – | 17.5 | – | 9.15 | – | 7.52 | – | 61.5 | 30.1 | – | -5.75 | – | -0.379 | -4.68 | 7.7 | – | – | – | –
CC[C@H](C)C(=O)O[C@H]1C[C@@H](C)C=C2C=C[C@H](C)[C@H](CC[C@@H]3C[C@@H](O)CC(=O)O3)[C@H]21 | – | 15.8 | – | 12.1 | – | 8.04 | – | 49.6 | 71.5 | – | -4.68 | – | 5.94 | 4.61 | 11.4 | – | – | – | –
CC[C@@H](Nc1c(C#N)c(-c2ccc(-c3cccc(C)c3F)cc2)nc2cnccc12)C(=O)O | – | 12.3 | – | 24.5 | – | 2.5 | – | 49.5 | 42.6 | – | -1.4 | – | 2.05 | 3.25 | 31.6 | – | – | – | –
CC(C)c1ccc(CC(=O)N2CCC[C@@H](c3cccc(OC(C)(C)C(=O)O)c3)C2)cc1 | – | 12.4 | – | -0.105 | – | 3.87 | – | 47.9 | 54.2 | – | -5.29 | – | 8.57 | 4.61 | -4.05 | – | – | – | –
CNC(=N)NCCC[C@H](NC(=O)[C@H](CC(C)C)NC(=O)NNC(=O)[C@H](Cc1ccccc1)NC(=O)[C@H](CO)NC(=O)[C@H](CC(N)=O)NC(=O)[C@@H](Cc1cccnc1)NC(=O)[C@H](N)Cc1ccc(O)cc1)C(=O)NCC(N)=O (H-[dY][d3Pal]NSF[azaGly]L[Arg(Me)]G-NH2) | – | 25.5 | – | -0.706 | – | 7.1 | – | 62.4 | 60.6 | – | -0.139 | – | 0.685 | -2.53 | 9.57 | – | – | – | –
CC1(C)CCC(C)(C)c2cc(C(=O)Nc3ccc(C(=O)O)cc3)ccc21 | – | 16.9 | – | 14.4 | – | 5.57 | – | 100 | 58.8 | – | -3.17 | – | 2.66 | -6.36 | 27.8 | – | – | – | –
O=c1[nH]c2ccccc2n1CCCN1CCN(C(c2ccccc2)c2ccccc2)CC1 | – | 20.2 | – | 1.43 | – | 4.47 | – | 97.2 | 57.5 | – | -7.26 | – | -3.26 | 5.38 | 10.8 | – | – | – | –
CCOP(=O)(OCC)C(=Cc1cc(C(C)(C)C)c(O)c(C(C)(C)C)c1)P(=O)(OCC)OCC | – | 3.52 | – | 14.5 | – | -4.58 | – | 58.6 | 49.5 | – | -3.17 | – | 12.5 | 11.2 | -1.84 | – | – | – | –
C[C@@]1(Cc2ccc(C#N)cc2)C(=O)N(c2cc(Cl)cc(Cl)c2)c2ncc(C(=O)NC3(c4nc(C5CCC5)no4)CC3)n21 | – | 14.7 | – | -3.98 | – | 3.21 | – | 98.8 | 57.2 | – | -6.2 | – | -5.89 | -9.93 | 13.1 | – | – | – | –
CC(C)c1onc(-c2c(Cl)cccc2Cl)c1COc1ccc(/C=C/c2cccc(C(=O)O)c2)c(Cl)c1 | – | 19.5 | – | 0.66 | – | 4.8 | – | 100 | 58.8 | – | -5.29 | – | 12.5 | -6.36 | – | 103 | – | – | –
Nc1ncnc2c1ncn2[C@@H]1O[C@H](CO)[C@@H](O)[C@H]1O | – | -2.21 | – | 17.8 | – | -7.49 | – | 6.82 | -3.22 | – | 8.25 | – | 2.66 | 2.76 | -6.13 | – | – | – | –
CC(C)S(=O)(=O)c1ccc2nccc(Nc3ccc4scnc4c3)c2c1 | – | 32.3 | – | 18.3 | – | 8 | – | 49.5 | 9.41 | – | -7.92 | – | 9.85 | 1.58 | 12 | – | – | – | –
CNC(=O)c1cc(C(=O)N[C@H]2[C@@H]3COC[C@@H]32)cc2c1O[C@@H](CF)[C@@H]2c1ccccc1 | – | 8.28 | – | -6.61 | – | 4.27 | – | 52.5 | 54.8 | – | 6.68 | – | -3.92 | 8.44 | 6.72 | – | – | – | –
CC1(C)CCC(C)(C)c2cc(NC(=O)c3ccc(C(=O)O)cc3)ccc21 | – | 7.75 | – | 0.879 | – | 0.0471 | – | 47.2 | 58.9 | – | -4.53 | – | 1.34 | 4.36 | 31.6 | – | – | – | –
CN(C)C(=O)Cn1cc(-c2ccc(-c3cncc4ccccc34)cc2)cn1 | 16.6 | – | 5.04 | – | 0.741 | – | 40.2 | – | – | -4.09 | – | -6.19 | – | – | – | – | 30 | -1.92 | -1.89
CCOc1cc(N2CCC(O)CC2)ccc1Nc1ncc2c(n1)N(C)c1ccccc1C(=O)N2C | – | 19.5 | – | 18.6 | – | 12.3 | – | 59.4 | 17.2 | – | -3.56 | – | 1.48 | 2.66 | -8.63 | – | – | – | –
CN(C(=O)c1cnn2cccnc12)c1cc2c(cc1N1CCOCC1)C(=O)N(C[C@@H](F)C(C)(C)O)C2 | – | 9.25 | – | 2.33 | – | 0.621 | – | 39.8 | 23.6 | – | 6.13 | – | -9.94 | -1.57 | -1.31 | – | – | – | –
